From US10202387B2, “Heterocyclyl linked imidazopyridazine derivatives as PI3KB inhibitors” (Janssen Pharmaceutica NV, priority 2014, dated 2019)

Legend:
[1] = tested on: Akt phosphorylated at Thr308 in PC-3 cells; assay: Cellular assay: phosphorylation of Akt (Thr308) in PC-3 cells, MSD ELISA; type: cell-based; conditions: Homo sapiens, 1 h, 60 min incubation with compound, read-out: IC50 pAkt_Thr308
Protocol: (§1) Cellular activity of PI3Kβ inhibitors was determined by quantifying the phosphorylation of Akt in PC-3 cells. Akt phosphorylated at Ser473 and Thr308 were measured using an enzyme-linked immunosorbent assay (ELISA; Meso Scale Discovery (MSD). Gaithersburg, Md.) and specific primary antibodies from MSD.
(§2) On day 1, PC3 cells (ATCC […]) were seeded into PerkinElmer MW96 plates at 25.000 cells per well, in 75 μl complete culture medium (DMEM (Dulbecco's Modified Eagle's Medium) high glucose. AQmedia™, D0819, Sigma-Aldrich) containing 10% heat inactivated FCS (Fetal Bovine Serum) and incubated at 37° C., 5% CO2 during 24 hours. On day 2, compound or DMSO (dimethyl sulfoxide) (0.3%) was added and cells were further incubated for 60 min at 37° C., 5% CO2 in a total volume of 100 μl of medium.
(§3) The phosphoprotein assay was executed according to vendor instructions in the Phospho-Akt (Ser473) Assay Whole Cell Lysate Kit (MSD #K15100D-3) and the Phospho-Akt (Thr308) Assay Whole Cell Lysate Kit (MSD #K151DYD-3) using the lysis, blocking and wash buffer provided.
(§4) Briefly, at the end of the cell treatment period, media were removed by aspiration and adherent cells were lysed in 50 μl ice-cold lysis buffer. MSD plates are supplied pre-coated with capture antibodies for Phospho-Akt (Ser473 and Thr308). After blocking, lysates from tissue culture plates were added and plates were washed. Then, a solution containing the detection antibody (anti-total Akt conjugated with an electrochemiluminescent compound-MSD Sulfo-tag label) was added. The signals were detected using an MSD SECTOR Imager 6000 and are proportional to the phospho-Akt titres.
(§5) Data were processed. The percentage of inhibition was plotted against the log concentration of test compounds, and the sigmoidal log concentration-effect curve of best fit was calculated by nonlinear regression analysis. From these concentration-response curves, the IC50 values were calculated. Five concentrations were used for curve fitting.

[2] = tested on: Akt phosphorylated at Ser473 in PC-3 cells; assay: Cellular assay: phosphorylation of Akt (Ser473) in PC-3 cells, MSD ELISA; type: cell-based; conditions: Homo sapiens, 1 h, 60 min incubation with compound, read-out: IC50 pAkt_S473
Protocol: as §1, §2, §3, §4, §5

[3] = target: T1, PIK3Cβ_h (Homo sapiens, UniProt P42338); assay: Enzyme binding assay (KINOMEscan); conditions: DiscoveRx
T1 construct: purchased DiscoveRx Corporation, San Diego (KINOMEscan service)
Protocol: (§6) Enzyme Binding Assays (KINOMEscan®)
(§7) Kinase enzyme binding affinities of compounds disclosed herein were determined using the KINOMEscan technology performed by DiscoveRx Corporation, San Diego, Calif., USA (www.kinomescan.com). Table A reports the obtained Kd values (nM), with the Kd being the inhibitor binding constant: […]

[4] = target: T2, PIK3Cα_h (Homo sapiens, UniProt P42336); assay: Enzyme binding assay (KINOMEscan); conditions: DiscoveRx
T2 construct: purchased DiscoveRx Corporation, San Diego (KINOMEscan service)
Protocol: as §6, §7

[5] = target: T3, PIK3Cδ_h (Homo sapiens, UniProt O00329); assay: Enzyme binding assay (KINOMEscan); conditions: DiscoveRx
T3 construct: purchased DiscoveRx Corporation, San Diego (KINOMEscan service)
T3 sequence (O00329 1-1044): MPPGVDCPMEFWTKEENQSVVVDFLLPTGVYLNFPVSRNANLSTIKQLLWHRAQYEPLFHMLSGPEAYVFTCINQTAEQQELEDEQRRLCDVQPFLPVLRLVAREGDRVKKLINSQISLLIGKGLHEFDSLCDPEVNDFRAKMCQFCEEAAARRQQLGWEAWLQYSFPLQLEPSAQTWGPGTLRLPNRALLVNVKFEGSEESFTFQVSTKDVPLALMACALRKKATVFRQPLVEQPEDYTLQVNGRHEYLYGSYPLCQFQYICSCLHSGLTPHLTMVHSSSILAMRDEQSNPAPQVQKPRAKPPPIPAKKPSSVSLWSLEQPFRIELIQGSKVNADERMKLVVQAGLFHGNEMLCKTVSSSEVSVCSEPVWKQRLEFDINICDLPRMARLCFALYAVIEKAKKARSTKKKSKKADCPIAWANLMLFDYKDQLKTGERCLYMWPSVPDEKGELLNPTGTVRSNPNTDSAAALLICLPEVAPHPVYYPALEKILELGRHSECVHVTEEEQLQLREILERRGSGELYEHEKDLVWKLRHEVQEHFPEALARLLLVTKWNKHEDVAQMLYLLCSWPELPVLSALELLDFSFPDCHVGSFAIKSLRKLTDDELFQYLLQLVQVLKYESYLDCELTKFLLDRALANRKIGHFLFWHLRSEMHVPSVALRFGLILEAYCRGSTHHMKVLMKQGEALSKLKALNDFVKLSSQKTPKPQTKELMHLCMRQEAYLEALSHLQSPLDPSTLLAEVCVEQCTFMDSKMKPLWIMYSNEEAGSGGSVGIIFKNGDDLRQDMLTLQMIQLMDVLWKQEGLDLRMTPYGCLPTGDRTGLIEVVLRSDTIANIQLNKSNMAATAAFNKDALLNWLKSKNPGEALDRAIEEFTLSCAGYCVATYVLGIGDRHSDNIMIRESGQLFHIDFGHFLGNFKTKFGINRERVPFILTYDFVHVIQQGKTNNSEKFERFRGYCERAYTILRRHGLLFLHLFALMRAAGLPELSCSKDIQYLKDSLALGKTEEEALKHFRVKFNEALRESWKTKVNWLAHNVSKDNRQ
Protocol: as §6, §7

[6] = target: T4, PIK3Cγ_h (Homo sapiens, UniProt P48736); assay: Enzyme binding assay (KINOMEscan); conditions: DiscoveRx
T4 construct: purchased DiscoveRx Corporation, San Diego (KINOMEscan service)
Protocol: as §6, §7

[7] = target: T5, MTOR_h (Homo sapiens, UniProt P42345); assay: Enzyme binding assay (KINOMEscan); conditions: DiscoveRx
T5 construct: purchased DiscoveRx Corporation, San Diego (KINOMEscan service)
Protocol: as §6, §7

T4 sequence (P48736 whole entry): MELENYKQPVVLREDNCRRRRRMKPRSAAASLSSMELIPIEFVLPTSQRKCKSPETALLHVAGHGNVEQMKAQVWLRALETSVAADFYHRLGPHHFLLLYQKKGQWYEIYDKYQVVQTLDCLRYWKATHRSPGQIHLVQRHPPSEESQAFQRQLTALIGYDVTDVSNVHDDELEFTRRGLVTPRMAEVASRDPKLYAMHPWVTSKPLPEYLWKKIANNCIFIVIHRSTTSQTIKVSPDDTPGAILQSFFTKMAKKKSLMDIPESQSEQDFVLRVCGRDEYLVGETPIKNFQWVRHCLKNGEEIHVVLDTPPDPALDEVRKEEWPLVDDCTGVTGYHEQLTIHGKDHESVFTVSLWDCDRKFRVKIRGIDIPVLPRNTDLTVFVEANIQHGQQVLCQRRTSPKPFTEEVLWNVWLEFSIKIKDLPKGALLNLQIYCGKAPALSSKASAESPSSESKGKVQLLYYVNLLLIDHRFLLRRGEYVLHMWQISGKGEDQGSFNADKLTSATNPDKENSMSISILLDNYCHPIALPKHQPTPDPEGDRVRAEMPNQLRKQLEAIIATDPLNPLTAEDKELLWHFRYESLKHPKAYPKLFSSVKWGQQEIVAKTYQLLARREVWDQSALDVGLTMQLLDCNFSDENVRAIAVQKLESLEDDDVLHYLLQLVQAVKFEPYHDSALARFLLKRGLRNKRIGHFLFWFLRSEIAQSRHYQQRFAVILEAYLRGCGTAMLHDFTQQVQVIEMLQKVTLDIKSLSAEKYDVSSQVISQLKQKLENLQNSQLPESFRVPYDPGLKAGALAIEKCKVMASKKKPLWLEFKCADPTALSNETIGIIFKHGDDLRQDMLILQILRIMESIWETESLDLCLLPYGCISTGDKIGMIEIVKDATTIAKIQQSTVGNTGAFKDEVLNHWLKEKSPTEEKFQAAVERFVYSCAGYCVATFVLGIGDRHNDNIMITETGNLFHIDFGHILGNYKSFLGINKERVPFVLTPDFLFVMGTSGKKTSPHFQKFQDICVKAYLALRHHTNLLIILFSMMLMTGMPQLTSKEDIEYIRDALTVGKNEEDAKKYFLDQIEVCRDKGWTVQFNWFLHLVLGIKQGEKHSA
T1 sequence (P42338 whole entry): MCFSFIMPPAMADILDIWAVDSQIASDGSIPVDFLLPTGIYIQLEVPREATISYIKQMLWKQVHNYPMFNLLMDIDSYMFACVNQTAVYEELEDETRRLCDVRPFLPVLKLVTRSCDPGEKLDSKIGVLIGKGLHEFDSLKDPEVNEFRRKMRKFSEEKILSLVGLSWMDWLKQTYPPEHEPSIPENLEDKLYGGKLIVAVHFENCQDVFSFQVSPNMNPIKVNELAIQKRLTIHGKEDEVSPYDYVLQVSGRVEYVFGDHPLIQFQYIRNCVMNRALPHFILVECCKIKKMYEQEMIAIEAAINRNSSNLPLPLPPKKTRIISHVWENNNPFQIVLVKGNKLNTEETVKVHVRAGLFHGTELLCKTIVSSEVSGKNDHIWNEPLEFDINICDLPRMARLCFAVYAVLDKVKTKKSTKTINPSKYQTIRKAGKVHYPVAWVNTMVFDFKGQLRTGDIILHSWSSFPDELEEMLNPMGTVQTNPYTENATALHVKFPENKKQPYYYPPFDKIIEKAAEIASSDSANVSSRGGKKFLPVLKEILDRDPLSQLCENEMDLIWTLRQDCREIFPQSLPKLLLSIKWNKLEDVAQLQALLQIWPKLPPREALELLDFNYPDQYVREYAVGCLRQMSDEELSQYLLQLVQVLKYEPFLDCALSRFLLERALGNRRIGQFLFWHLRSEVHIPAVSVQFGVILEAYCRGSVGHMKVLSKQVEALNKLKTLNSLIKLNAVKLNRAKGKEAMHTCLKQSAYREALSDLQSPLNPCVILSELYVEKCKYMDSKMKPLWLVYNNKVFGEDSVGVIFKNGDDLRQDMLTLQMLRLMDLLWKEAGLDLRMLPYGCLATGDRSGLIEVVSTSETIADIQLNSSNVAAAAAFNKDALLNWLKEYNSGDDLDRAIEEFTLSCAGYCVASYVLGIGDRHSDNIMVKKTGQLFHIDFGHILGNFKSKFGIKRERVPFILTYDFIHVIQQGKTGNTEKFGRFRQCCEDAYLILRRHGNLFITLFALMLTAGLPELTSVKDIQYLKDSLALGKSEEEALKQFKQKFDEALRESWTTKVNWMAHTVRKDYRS
T2 sequence (P42336 whole entry): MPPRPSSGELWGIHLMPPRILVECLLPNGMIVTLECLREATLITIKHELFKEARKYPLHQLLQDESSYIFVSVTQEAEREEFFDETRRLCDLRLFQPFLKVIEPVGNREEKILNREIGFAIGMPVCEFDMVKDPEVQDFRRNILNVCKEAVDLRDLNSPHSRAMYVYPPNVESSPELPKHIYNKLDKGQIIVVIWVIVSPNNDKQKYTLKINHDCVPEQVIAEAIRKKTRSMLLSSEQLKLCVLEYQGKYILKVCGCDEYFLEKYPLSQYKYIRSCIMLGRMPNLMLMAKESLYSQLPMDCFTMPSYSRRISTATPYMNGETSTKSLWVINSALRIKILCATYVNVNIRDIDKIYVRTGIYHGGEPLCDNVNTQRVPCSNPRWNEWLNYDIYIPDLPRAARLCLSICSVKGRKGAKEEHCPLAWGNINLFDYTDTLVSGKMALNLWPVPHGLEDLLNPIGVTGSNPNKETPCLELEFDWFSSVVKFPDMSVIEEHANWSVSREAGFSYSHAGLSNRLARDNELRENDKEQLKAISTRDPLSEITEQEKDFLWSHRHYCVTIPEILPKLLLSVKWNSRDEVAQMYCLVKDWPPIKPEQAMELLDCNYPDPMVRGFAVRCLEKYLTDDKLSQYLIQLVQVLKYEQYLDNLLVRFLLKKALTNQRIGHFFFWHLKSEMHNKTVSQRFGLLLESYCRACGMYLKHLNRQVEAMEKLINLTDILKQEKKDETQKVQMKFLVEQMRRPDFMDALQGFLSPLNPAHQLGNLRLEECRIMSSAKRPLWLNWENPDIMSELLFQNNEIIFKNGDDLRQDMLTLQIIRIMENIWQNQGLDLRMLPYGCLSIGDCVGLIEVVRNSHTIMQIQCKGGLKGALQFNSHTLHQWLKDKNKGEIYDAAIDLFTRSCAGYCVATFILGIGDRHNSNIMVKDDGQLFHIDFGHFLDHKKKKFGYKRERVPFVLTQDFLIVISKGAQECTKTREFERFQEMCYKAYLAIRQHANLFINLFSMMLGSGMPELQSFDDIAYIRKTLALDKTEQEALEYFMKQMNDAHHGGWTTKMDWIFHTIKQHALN

| SMILES | melting point [°C] | IC50 [1] [nM] | IC50 [2] [nM] | Kd [3] [nM] | Kd [4] [nM] | Kd [5] [nM] | Kd [6] [nM] | Kd [7] [nM] |
| --- | --- | --- | --- | --- | --- | --- | --- | --- |
| Cc1c(Cc2c(COC(=O)CN3CCN(C)CC3)nc3c(N)cc(N4CCOCC4)nn23)cccc1C(F)(F)F [Compound 40b] | 99 | 105 | 214 | 2.8 | 25100 | 479 | > 30200 | 21900 |
| Cc1c(Cc2c(CN3CCC(CO)CC3)nc3c(N)cc(N4CCOCC4)nn23)cccc1C(F)(F)F [Compound 9] | 215 | ~39 | 76 | 0.6 | 14500 | 65 | > 30200 | > 30200 |
| Cc1c(Cc2c(CN3CC4(C3)CS(=O)(=O)C4)nc3c(C(N)=O)cc(N4CCOCC4)nn23)cccc1C(F)(F)F [Compound 26] | 216 | ~62 | 275 | 3 | 692 | 372 | 10700 | > 30200 |

Now those with a lower IC50 [1], led by results:

| melting point [°C] | IC50 [1] [nM] | IC50 [2] [nM] | Kd [3] [nM] | Kd [4] [nM] | Kd [5] [nM] | Kd [6] [nM] | Kd [7] [nM] | SMILES |
| --- | --- | --- | --- | --- | --- | --- | --- | --- |
| 110 | ~26 | 45 | 0.5 | 2240 | 56 | 8910 | 10700 | Cc1c(Cc2c(CC(=O)N3CC(C)NC(C)C3)nc3c(N)cc(N4CCOCC4)nn23)cccc1C(F)(F)F (stereo not shown) [Compound 22] |
| 188 | ~33 | 18 | 2.3 | 3980 | 166 | > 30200 | > 30200 | Cc1c(Cc2c(CN3CCC(S(C)(=O)=O)CC3)nc3c(N)cc(N4CCOCC4)nn23)cccc1C(F)(F)F [Compound 4] |
